{"source": "the kinase profiling compilation of Christmann-Franck et al. (2016)", "test_in_all_cases": "radiometric filter-binding kinase assay, Kinase HotSpot", "conditions_in_all_cases": "compound 0.5 µM; ATP 10 µM", "key": {"PRKD1 (human)": {"biological_target": "PRKD1 (human) (UniProt Q15139)"}, "EPHA5 (human)": {"biological_target": "EPHA5 (human) (UniProt P54756)"}, "STK25 (human)": {"biological_target": "STK25 (human) (UniProt O00506)"}, "PDGFRA (human)": {"biological_target": "PDGFRA (human) (UniProt P16234)"}, "NEK3 (human)": {"biological_target": "NEK3 (human) (UniProt P51956)"}, "ROS1 (human)": {"biological_target": "ROS1 (human) (UniProt P08922)"}, "MAP3K8 (human)": {"biological_target": "MAP3K8 (human) (UniProt P41279)"}, "MST4 (human)": {"biological_target": "MST4 (human) (UniProt Q9P289)"}, "DYRK3 (human)": {"biological_target": "DYRK3 (human) (UniProt O43781)"}, "MYLK2 (human)": {"biological_target": "MYLK2 (human) (UniProt Q9H1R3)"}, "KIT (human)": {"biological_target": "KIT (human) (UniProt P10721)"}, "EPHB2 (human)": {"biological_target": "EPHB2 (human) (UniProt P29323)", "sequence (P29323 whole entry, looked up)": "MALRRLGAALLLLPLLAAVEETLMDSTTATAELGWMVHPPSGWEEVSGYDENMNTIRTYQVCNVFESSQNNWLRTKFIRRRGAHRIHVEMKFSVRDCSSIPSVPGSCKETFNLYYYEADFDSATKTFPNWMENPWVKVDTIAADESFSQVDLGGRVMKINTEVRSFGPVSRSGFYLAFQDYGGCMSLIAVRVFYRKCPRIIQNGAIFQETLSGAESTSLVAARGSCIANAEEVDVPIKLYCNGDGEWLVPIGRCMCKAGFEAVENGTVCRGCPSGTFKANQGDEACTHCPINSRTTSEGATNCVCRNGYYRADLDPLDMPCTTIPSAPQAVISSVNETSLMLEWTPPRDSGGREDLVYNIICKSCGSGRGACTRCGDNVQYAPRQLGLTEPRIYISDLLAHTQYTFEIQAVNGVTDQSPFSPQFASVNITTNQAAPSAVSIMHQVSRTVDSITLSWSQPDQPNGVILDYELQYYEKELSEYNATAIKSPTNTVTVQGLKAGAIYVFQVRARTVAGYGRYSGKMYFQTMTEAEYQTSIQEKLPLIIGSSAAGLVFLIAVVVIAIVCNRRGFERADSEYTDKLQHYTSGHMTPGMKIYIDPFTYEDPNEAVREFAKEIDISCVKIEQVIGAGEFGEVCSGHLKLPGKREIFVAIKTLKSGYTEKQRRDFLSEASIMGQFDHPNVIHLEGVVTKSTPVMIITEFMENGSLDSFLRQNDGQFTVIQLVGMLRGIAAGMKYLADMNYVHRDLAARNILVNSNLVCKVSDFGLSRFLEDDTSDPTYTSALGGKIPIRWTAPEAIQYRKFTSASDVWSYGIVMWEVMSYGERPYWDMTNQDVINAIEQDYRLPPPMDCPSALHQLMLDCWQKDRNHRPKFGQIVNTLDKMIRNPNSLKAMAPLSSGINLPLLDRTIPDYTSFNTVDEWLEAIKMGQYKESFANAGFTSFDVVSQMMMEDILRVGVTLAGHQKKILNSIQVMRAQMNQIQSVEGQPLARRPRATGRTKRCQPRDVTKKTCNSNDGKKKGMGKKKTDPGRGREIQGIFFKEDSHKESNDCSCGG"}, "NEK1 (human)": {"biological_target": "NEK1 (human) (UniProt Q96PY6)"}, "MUSK (human)": {"biological_target": "MUSK (human) (UniProt O15146)", "sequence (O15146 whole entry, looked up)": "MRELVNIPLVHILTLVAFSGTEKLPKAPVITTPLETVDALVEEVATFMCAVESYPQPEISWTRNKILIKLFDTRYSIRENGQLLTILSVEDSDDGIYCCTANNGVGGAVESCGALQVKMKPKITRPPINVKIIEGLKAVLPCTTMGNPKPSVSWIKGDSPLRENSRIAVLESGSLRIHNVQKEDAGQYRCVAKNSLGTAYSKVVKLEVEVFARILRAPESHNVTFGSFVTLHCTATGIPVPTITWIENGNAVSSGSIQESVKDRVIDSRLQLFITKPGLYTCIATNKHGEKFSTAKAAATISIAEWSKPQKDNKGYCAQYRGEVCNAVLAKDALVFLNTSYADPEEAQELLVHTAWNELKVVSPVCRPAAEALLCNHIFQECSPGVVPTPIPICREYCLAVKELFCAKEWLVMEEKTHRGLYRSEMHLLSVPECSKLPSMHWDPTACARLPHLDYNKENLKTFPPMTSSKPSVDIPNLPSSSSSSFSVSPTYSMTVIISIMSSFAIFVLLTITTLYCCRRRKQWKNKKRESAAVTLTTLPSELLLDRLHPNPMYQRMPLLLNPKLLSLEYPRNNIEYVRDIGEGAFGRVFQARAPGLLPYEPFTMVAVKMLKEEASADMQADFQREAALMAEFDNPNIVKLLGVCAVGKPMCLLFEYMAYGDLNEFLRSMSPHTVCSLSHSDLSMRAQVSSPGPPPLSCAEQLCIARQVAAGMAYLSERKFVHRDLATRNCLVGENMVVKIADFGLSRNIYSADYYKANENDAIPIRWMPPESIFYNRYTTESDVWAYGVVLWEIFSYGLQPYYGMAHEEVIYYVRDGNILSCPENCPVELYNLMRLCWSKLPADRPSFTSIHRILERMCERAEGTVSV"}, "EPHA8 (human)": {"biological_target": "EPHA8 (human) (UniProt P29322)"}, "SGK2 (human)": {"biological_target": "SGK2 (human) (UniProt Q9HBY8)"}, "PTK2 (human)": {"biological_target": "PTK2 (human) (UniProt Q05397)"}, "PRKCB1 (human)": {"biological_target": "PRKCB1 (human) (UniProt P05771)"}, "PAK6 (human)": {"biological_target": "PAK6 (human) (UniProt Q9NQU5)"}, "CDC42BPA (human)": {"biological_target": "CDC42BPA (human) (UniProt Q5VT25)"}, "CDK5 CDK5R1 p25 (human)": {"biological_target": "CDK5 CDK5R1 p25 (human) (UniProt Q00535+Q15078)"}, "GRK5 (human)": {"biological_target": "GRK5 (human) (UniProt P34947)"}, "FER (human)": {"biological_target": "FER (human) (UniProt P16591)"}, "INSRR (human)": {"biological_target": "INSRR (human) (UniProt P14616)"}, "ULK1 (human)": {"biological_target": "ULK1 (human) (UniProt O75385)", "sequence (O75385 whole entry, looked up)": "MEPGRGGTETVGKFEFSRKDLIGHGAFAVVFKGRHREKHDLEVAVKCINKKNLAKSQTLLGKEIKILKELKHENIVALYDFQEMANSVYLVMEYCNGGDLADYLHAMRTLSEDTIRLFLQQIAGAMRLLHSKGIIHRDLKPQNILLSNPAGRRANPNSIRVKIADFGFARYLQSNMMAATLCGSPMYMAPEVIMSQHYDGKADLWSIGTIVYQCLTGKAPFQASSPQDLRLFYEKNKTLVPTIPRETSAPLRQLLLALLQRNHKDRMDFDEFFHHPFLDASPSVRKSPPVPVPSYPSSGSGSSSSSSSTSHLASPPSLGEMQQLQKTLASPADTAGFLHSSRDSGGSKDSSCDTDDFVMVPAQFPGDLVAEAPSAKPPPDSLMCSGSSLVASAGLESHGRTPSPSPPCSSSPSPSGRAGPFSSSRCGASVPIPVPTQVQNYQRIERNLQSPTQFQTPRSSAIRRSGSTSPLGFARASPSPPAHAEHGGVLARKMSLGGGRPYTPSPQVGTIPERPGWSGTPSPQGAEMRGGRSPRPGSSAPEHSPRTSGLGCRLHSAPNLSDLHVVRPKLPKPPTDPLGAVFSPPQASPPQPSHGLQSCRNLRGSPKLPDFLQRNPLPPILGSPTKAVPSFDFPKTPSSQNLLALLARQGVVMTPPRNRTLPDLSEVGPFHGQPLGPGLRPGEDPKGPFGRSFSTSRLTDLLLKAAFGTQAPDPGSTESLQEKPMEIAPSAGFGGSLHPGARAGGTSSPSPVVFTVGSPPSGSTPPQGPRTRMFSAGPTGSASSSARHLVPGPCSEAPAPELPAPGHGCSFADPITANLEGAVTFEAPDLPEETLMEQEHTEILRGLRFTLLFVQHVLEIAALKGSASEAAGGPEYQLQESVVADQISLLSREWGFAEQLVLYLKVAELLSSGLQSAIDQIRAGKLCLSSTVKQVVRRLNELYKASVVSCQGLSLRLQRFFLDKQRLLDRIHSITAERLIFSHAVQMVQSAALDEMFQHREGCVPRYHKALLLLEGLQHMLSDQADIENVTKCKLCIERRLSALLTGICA"}, "CSF1R (human)": {"biological_target": "CSF1R (human) (UniProt P07333)"}, "FLT3 (human)": {"biological_target": "FLT3 (human) (UniProt P36888)"}, "MAP3K2 (human)": {"biological_target": "MAP3K2 (human) (UniProt Q9Y2U5)"}, "INSR (human)": {"biological_target": "INSR (human) (UniProt P06213)"}, "MAP4K5 (human)": {"biological_target": "MAP4K5 (human) (UniProt Q9Y4K4)"}, "PNCK (human)": {"biological_target": "PNCK (human) (UniProt Q6P2M8)"}, "CSNK1G2 (human)": {"biological_target": "CSNK1G2 (human) (UniProt P78368)"}, "CSNK1E (human)": {"biological_target": "CSNK1E (human) (UniProt P49674)"}, "PRKCB2 (human)": {"biological_target": "PRKCB2 (human) (UniProt P05771)"}, "PLK1 (human)": {"biological_target": "PLK1 (human) (UniProt P53350)"}, "IKBKE (human)": {"biological_target": "IKBKE (human) (UniProt Q14164)"}, "ADRBK2 (human)": {"biological_target": "ADRBK2 (human) (UniProt P35626)"}, "TEC (human)": {"biological_target": "TEC (human) (UniProt P42680)"}, "MAPKAPK3 (human)": {"biological_target": "MAPKAPK3 (human) (UniProt Q16644)"}, "PRKCE (human)": {"biological_target": "PRKCE (human) (UniProt Q02156)"}, "AKT1 (human)": {"biological_target": "AKT1 (human) (UniProt P31749)", "sequence (P31749 whole entry, looked up)": "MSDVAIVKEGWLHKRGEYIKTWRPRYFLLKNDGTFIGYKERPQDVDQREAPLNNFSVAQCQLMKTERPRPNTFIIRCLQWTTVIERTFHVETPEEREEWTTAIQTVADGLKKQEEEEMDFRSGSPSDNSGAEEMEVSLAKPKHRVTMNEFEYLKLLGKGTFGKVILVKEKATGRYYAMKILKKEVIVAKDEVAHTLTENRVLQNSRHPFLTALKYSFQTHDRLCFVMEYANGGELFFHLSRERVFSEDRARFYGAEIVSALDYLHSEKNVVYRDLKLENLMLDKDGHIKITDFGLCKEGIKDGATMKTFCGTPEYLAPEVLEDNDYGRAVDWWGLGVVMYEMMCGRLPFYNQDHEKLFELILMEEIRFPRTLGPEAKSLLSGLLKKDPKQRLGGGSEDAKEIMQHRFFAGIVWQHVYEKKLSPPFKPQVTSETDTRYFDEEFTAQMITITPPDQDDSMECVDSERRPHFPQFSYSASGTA"}, "ROCK2 (human)": {"biological_target": "ROCK2 (human) (UniProt O75116)", "sequence (O75116 whole entry, looked up)": "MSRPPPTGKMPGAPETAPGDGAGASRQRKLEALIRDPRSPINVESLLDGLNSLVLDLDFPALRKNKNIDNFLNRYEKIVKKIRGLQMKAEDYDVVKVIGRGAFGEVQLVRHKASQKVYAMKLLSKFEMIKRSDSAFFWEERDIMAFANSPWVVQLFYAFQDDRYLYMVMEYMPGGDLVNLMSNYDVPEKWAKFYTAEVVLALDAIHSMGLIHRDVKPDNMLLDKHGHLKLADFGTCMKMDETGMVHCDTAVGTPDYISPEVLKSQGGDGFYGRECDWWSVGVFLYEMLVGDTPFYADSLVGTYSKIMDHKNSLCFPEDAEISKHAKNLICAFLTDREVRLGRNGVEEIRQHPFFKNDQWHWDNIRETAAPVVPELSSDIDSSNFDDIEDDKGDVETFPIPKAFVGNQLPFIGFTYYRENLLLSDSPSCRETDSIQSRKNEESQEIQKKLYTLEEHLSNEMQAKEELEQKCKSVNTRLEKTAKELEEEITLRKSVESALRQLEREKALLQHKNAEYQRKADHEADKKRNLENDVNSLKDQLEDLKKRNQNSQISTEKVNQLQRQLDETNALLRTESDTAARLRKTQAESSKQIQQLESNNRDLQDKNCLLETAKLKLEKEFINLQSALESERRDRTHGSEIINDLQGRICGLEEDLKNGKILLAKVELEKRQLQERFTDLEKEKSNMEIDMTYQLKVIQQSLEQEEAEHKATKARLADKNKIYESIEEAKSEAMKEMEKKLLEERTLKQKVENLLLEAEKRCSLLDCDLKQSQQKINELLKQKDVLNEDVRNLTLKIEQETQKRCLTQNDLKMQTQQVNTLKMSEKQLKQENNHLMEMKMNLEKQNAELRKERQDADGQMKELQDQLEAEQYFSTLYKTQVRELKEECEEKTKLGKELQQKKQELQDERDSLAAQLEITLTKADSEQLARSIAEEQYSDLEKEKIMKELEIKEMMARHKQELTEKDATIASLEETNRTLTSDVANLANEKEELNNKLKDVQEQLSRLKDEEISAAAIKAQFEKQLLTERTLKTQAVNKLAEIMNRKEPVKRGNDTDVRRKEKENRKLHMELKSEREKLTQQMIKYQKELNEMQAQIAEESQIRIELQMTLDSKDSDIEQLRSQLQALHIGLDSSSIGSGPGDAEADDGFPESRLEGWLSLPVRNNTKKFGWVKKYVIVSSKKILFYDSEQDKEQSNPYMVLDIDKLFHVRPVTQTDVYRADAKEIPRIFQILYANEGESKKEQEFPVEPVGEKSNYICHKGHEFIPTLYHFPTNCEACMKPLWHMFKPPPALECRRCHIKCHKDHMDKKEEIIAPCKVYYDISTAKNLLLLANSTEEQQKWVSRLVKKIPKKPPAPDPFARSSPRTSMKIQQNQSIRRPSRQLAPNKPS"}}, "data": [{"smiles": "O=C1NC(=O)C(c2c[nH]c3ccccc23)=C1c1c[nH]c2ccccc12", "values": [{"measurement": "residual activity", "setting": "PRKD1 (human)", "result": 97.6, "unit": "%"}, {"measurement": "residual activity", "setting": "EPHA5 (human)", "result": 95.3, "unit": "%"}, {"measurement": "residual activity", "setting": "STK25 (human)", "result": 78.3, "unit": "%"}, {"measurement": "residual activity", "setting": "PDGFRA (human)", "result": 90.6, "unit": "%"}, {"measurement": "residual activity", "setting": "NEK3 (human)", "result": 88.2, "unit": "%"}, {"measurement": "residual activity", "setting": "ROS1 (human)", "result": 87, "unit": "%"}, {"measurement": "residual activity", "setting": "MAP3K8 (human)", "result": 90.8, "unit": "%"}, {"measurement": "residual activity", "setting": "MST4 (human)", "result": 59.2, "unit": "%"}, {"measurement": "residual activity", "setting": "DYRK3 (human)", "result": 101, "unit": "%"}, {"measurement": "residual activity", "setting": "MYLK2 (human)", "result": 91.9, "unit": "%"}, {"measurement": "residual activity", "setting": "KIT (human)", "result": 68.5, "unit": "%"}, {"measurement": "residual activity", "setting": "EPHB2 (human)", "result": 96.9, "unit": "%"}, {"measurement": "residual activity", "setting": "NEK1 (human)", "result": 93.8, "unit": "%"}, {"measurement": "residual activity", "setting": "MUSK (human)", "result": 76.4, "unit": "%"}, {"measurement": "residual activity", "setting": "EPHA8 (human)", "result": 103, "unit": "%"}, {"measurement": "residual activity", "setting": "SGK2 (human)", "result": 90.5, "unit": "%"}, {"measurement": "residual activity", "setting": "PTK2 (human)", "result": 101, "unit": "%"}, {"measurement": "residual activity", "setting": "PRKCB1 (human)", "result": 26.1, "unit": "%"}, {"measurement": "residual activity", "setting": "PAK6 (human)", "result": 92.4, "unit": "%"}, {"measurement": "residual activity", "setting": "CDC42BPA (human)", "result": 89.9, "unit": "%"}, {"measurement": "residual activity", "setting": "CDK5 CDK5R1 p25 (human)", "result": 87.4, "unit": "%"}, {"measurement": "residual activity", "setting": "GRK5 (human)", "result": 98.1, "unit": "%"}, {"measurement": "residual activity", "setting": "FER (human)", "result": 83.5, "unit": "%"}, {"measurement": "residual activity", "setting": "INSRR (human)", "result": 90.1, "unit": "%"}, {"measurement": "residual activity", "setting": "ULK1 (human)", "result": 105, "unit": "%"}, {"measurement": "residual activity", "setting": "CSF1R (human)", "result": 93.7, "unit": "%"}, {"measurement": "residual activity", "setting": "FLT3 (human)", "result": 16.1, "unit": "%"}, {"measurement": "residual activity", "setting": "MAP3K2 (human)", "result": 107, "unit": "%"}, {"measurement": "residual activity", "setting": "INSR (human)", "result": 99.6, "unit": "%"}, {"measurement": "residual activity", "setting": "MAP4K5 (human)", "result": 87.1, "unit": "%"}, {"measurement": "residual activity", "setting": "PNCK (human)", "result": 93.3, "unit": "%"}, {"measurement": "residual activity", "setting": "CSNK1G2 (human)", "result": 92, "unit": "%"}, {"measurement": "residual activity", "setting": "CSNK1E (human)", "result": 92.4, "unit": "%"}, {"measurement": "residual activity", "setting": "PRKCB2 (human)", "result": 42.9, "unit": "%"}, {"measurement": "residual activity", "setting": "PLK1 (human)", "result": 94.5, "unit": "%"}, {"measurement": "residual activity", "setting": "IKBKE (human)", "result": 103, "unit": "%"}, {"measurement": "residual activity", "setting": "ADRBK2 (human)", "result": 87, "unit": "%"}, {"measurement": "residual activity", "setting": "TEC (human)", "result": 145, "unit": "%"}, {"measurement": "residual activity", "setting": "MAPKAPK3 (human)", "result": 90.5, "unit": "%"}, {"measurement": "residual activity", "setting": "PRKCE (human)", "result": 24, "unit": "%"}, {"measurement": "residual activity", "setting": "AKT1 (human)", "result": 87.7, "unit": "%"}, {"measurement": "residual activity", "setting": "ROCK2 (human)", "result": 89.2, "unit": "%"}]}, {"smiles": "Cn1sc(=O)n(Cc2ccccc2)c1=O", "values": [{"measurement": "residual activity", "setting": "PRKD1 (human)", "result": 101, "unit": "%"}, {"measurement": "residual activity", "setting": "EPHA5 (human)", "result": 103, "unit": "%"}, {"measurement": "residual activity", "setting": "STK25 (human)", "result": 96.2, "unit": "%"}, {"measurement": "residual activity", "setting": "PDGFRA (human)", "result": 84.1, "unit": "%"}, {"measurement": "residual activity", "setting": "NEK3 (human)", "result": 89.3, "unit": "%"}, {"measurement": "residual activity", "setting": "ROS1 (human)", "result": 103, "unit": "%"}, {"measurement": "residual activity", "setting": "MAP3K8 (human)", "result": 97.1, "unit": "%"}, {"measurement": "residual activity", "setting": "MST4 (human)", "result": 98.1, "unit": "%"}, {"measurement": "residual activity", "setting": "DYRK3 (human)", "result": 108, "unit": "%"}, {"measurement": "residual activity", "setting": "MYLK2 (human)", "result": 101, "unit": "%"}, {"measurement": "residual activity", "setting": "KIT (human)", "result": 101, "unit": "%"}, {"measurement": "residual activity", "setting": "EPHB2 (human)", "result": 88.5, "unit": "%"}, {"measurement": "residual activity", "setting": "NEK1 (human)", "result": 102, "unit": "%"}, {"measurement": "residual activity", "setting": "MUSK (human)", "result": 103, "unit": "%"}, {"measurement": "residual activity", "setting": "EPHA8 (human)", "result": 94.4, "unit": "%"}, {"measurement": "residual activity", "setting": "SGK2 (human)", "result": 100, "unit": "%"}, {"measurement": "residual activity", "setting": "PTK2 (human)", "result": 99.5, "unit": "%"}, {"measurement": "residual activity", "setting": "PRKCB1 (human)", "result": 110, "unit": "%"}, {"measurement": "residual activity", "setting": "PAK6 (human)", "result": 93.4, "unit": "%"}, {"measurement": "residual activity", "setting": "CDC42BPA (human)", "result": 94, "unit": "%"}, {"measurement": "residual activity", "setting": "CDK5 CDK5R1 p25 (human)", "result": 103, "unit": "%"}, {"measurement": "residual activity", "setting": "GRK5 (human)", "result": 93.6, "unit": "%"}, {"measurement": "residual activity", "setting": "FER (human)", "result": 101, "unit": "%"}, {"measurement": "residual activity", "setting": "INSRR (human)", "result": 99.3, "unit": "%"}, {"measurement": "residual activity", "setting": "ULK1 (human)", "result": 98.9, "unit": "%"}, {"measurement": "residual activity", "setting": "CSF1R (human)", "result": 98.6, "unit": "%"}, {"measurement": "residual activity", "setting": "FLT3 (human)", "result": 99.1, "unit": "%"}, {"measurement": "residual activity", "setting": "MAP3K2 (human)", "result": 94.7, "unit": "%"}, {"measurement": "residual activity", "setting": "INSR (human)", "result": 93.7, "unit": "%"}, {"measurement": "residual activity", "setting": "MAP4K5 (human)", "result": 107, "unit": "%"}, {"measurement": "residual activity", "setting": "PNCK (human)", "result": 98.7, "unit": "%"}, {"measurement": "residual activity", "setting": "CSNK1G2 (human)", "result": 95, "unit": "%"}, {"measurement": "residual activity", "setting": "CSNK1E (human)", "result": 100, "unit": "%"}, {"measurement": "residual activity", "setting": "PRKCB2 (human)", "result": 111, "unit": "%"}, {"measurement": "residual activity", "setting": "PLK1 (human)", "result": 97.2, "unit": "%"}, {"measurement": "residual activity", "setting": "IKBKE (human)", "result": 96.4, "unit": "%"}, {"measurement": "residual activity", "setting": "ADRBK2 (human)", "result": 99.6, "unit": "%"}, {"measurement": "residual activity", "setting": "TEC (human)", "result": 117, "unit": "%"}, {"measurement": "residual activity", "setting": "MAPKAPK3 (human)", "result": 105, "unit": "%"}, {"measurement": "residual activity", "setting": "PRKCE (human)", "result": 94.8, "unit": "%"}, {"measurement": "residual activity", "setting": "AKT1 (human)", "result": 101, "unit": "%"}, {"measurement": "residual activity", "setting": "ROCK2 (human)", "result": 88.8, "unit": "%"}]}]}
